Test results as given in ChEMBL document CHEMBL5108051, “Improving the Antimicrobial Performance of Amphiphilic Cationic Antimicrobial Peptides Using Glutamic Acid Full-Scan and Positive Charge Compensation Strategies” (J Med Chem, 2022).
Values after ≈ are worked out from the molar mass of the structure shown. Square brackets hold non-standard residues; d marks the D form. Peptide text beside a SMILES is read from it. ξ: configuration not given here. Ile(3ξ) = CCC(C)[C@H](N)C(=O)O; ξK = NCCCCC(N)C(=O)O

Experiments:
Bacillus subtilis = assay: Antibacterial activity against Bacillus subtilis ATCC 23857 assessed as growth inhibition measured after 18 to 24 hrs by CLSI based broth microdilution method; assay type: functional; conditions: time 18-24 hrs
Staphylococcus aureus = assay: Antibacterial activity against Staphylococcus aureus ATCC 25923 assessed as growth inhibition measured after 18 to 24 hrs by CLSI based broth microdilution method; assay type: functional; conditions: time 18-24 hrs
Pseudomonas aeruginosa = assay: Antibacterial activity against Pseudomonas aeruginosa ATCC 27853 assessed as growth inhibition measured after 18 to 24 hrs by CLSI based broth microdilution method; assay type: functional; conditions: time 18-24 hrs
Escherichia coli = assay: Antibacterial activity against Escherichia coli ATCC 25922 assessed as growth inhibition measured after 18 to 24 hrs by CLSI based broth microdilution method; assay type: functional; conditions: time 18-24 hrs
Erythrocyte = assay: Hemolytic activity against mouse RBC measured after 1 hrs; assay type: toxicity, cell-based
Klebsiella pneumoniae = assay: Antibacterial activity against Klebsiella pneumoniae ATCC 700603 assessed as growth inhibition measured after 18 to 24 hrs by CLSI based broth microdilution method; assay type: functional; conditions: time 18-24 hrs

| Structure (SMILES) | MIC (Bacillus subtilis) [µM] | MIC (Staphylococcus aureus) [µM] | MIC (Pseudomonas aeruginosa) [µM] | MIC (Escherichia coli) [µM] | MHC10 (Erythrocyte) [µM] | MIC (Klebsiella pneumoniae) [µM] |
| --- | --- | --- | --- | --- | --- | --- |
| CC(C)C[C@H](NC(=O)[C@H](CC(C)C)NC(=O)CNC(=O)[C@H](CCC(=O)O)NC(=O)[C@H](CC(C)C)NC(=O)[C@H](CC(C)C)NC(=O)[C@H](CCCCN)NC(=O)[C@H](CCCCN)NC(=O)[C@@H](NC(=O)[C@H](CCCCN)NC(=O)[C@@H]1CCCN1C(=O)[C@H](CC(C)C)NC(=O)[C@@H](N)Cc1ccccc1)C(C)C)C(N)=O (H-FLPKVKKLLEGLL-NH2) | 128 (≈ 192 µg/mL) | 128 (≈ 192 µg/mL) | 32 (≈ 47.9 µg/mL) | 16 (≈ 24 µg/mL) | > 256 | 64 (≈ 95.8 µg/mL) |
| CC[C@H](C)[C@H](NC(=O)[C@@H]1CCCN1C(=O)[C@H](CC(C)C)NC(=O)[C@@H](N)Cc1ccccc1)C(=O)N[C@H](C(=O)N[C@@H](C)C(=O)N[C@@H](CCCCN)C(=O)N[C@@H](CC(C)C)C(=O)N[C@@H](CC(C)C)C(=O)N[C@@H](CO)C(=O)N[C@@H](CCC(=O)O)C(=O)N[C@@H](CC(C)C)C(=O)N[C@@H](CC(C)C)C(N)=O)C(C)C (H-FLPIVAKLLSELL-NH2) | 8 (≈ 11.6 µg/mL) | 16 (≈ 23.3 µg/mL) | > 128 | > 128 | 73.97 | > 128 |
| CC(C)C[C@H](NC(=O)[C@H](CC(C)C)NC(=O)[C@H](CCC(=O)O)NC(=O)[C@H](CO)NC(=O)[C@H](CC(C)C)NC(=O)[C@H](CC(C)C)NC(=O)[C@H](CCCCN)NC(=O)[C@H](CCCCN)NC(=O)[C@@H](NC(=O)[C@H](CCCCN)NC(=O)[C@@H]1CCCN1C(=O)[C@H](CC(C)C)NC(=O)[C@@H](N)Cc1ccccc1)C(C)C)C(N)=O (H-FLPKVKKLLSELL-NH2) | 16 (≈ 24.4 µg/mL) | 64 (≈ 97.7 µg/mL) | 32 (≈ 48.9 µg/mL) | 32 (≈ 48.9 µg/mL) | > 256 | 64 (≈ 97.7 µg/mL) |
| CC[C@H](C)[C@H](NC(=O)[C@@H]1CCCN1C(=O)[C@H](CC(C)C)NC(=O)[C@@H](N)Cc1ccccc1)C(=O)N[C@H](C(=O)N[C@@H](C)C(=O)N[C@@H](CCCCN)C(=O)N[C@@H](CC(C)C)C(=O)N[C@@H](CC(C)C)C(=O)N[C@@H](CCCCN)C(=O)NCC(=O)N[C@@H](CC(C)C)C(=O)N[C@@H](CC(C)C)C(N)=O)C(C)C (H-FLPIVAKLLKGLL-NH2) | 4 (≈ 5.7 µg/mL) | 8 (≈ 11.4 µg/mL) | > 128 | > 128 | 27.66 | > 128 |
| CCC(C)[C@H](NC(=O)[C@@H]1CCCN1C(=O)[C@H](CC(C)C)NC(=O)[C@@H](N)Cc1ccccc1)C(=O)N[C@H](C(=O)N[C@@H](CCCCN)C(=O)N[C@@H](CCCCN)C(=O)N[C@@H](CC(C)C)C(=O)N[C@@H](CC(C)C)C(=O)N[C@@H](CCCCN)C(=O)N[C@@H](CCC(=O)O)C(=O)N[C@@H](CC(C)C)C(=O)N[C@@H](CC(C)C)C(N)=O)C(C)C (stereo not given in full) (H-FLP[Ile(3ξ)]VKKLLKELL-NH2) | 4 (≈ 6.21 µg/mL) | 4 (≈ 6.21 µg/mL) | 8 (≈ 12.4 µg/mL) | 8 (≈ 12.4 µg/mL) | 53.73 | 16 (≈ 24.8 µg/mL) |
| CC[C@H](C)[C@H](NC(=O)[C@@H]1CCCN1C(=O)[C@H](CC(C)C)NC(=O)[C@@H](N)Cc1ccccc1)C(=O)N[C@H](C(=O)N[C@@H](C)C(=O)N[C@@H](CCCCN)C(=O)N[C@@H](CC(C)C)C(=O)N[C@@H](CC(C)C)C(=O)N[C@@H](CCC(=O)O)C(=O)NCC(=O)N[C@@H](CC(C)C)C(=O)N[C@@H](CC(C)C)C(N)=O)C(C)C (H-FLPIVAKLLEGLL-NH2) | 16 (≈ 22.8 µg/mL) | 16 (≈ 22.8 µg/mL) | > 128 | > 128 | 69.93 | > 128 |
| CC[C@H](C)[C@H](NC(=O)[C@@H]1CCCN1C(=O)[C@H](CC(C)C)NC(=O)[C@@H](N)Cc1ccccc1)C(=O)N[C@@H](CCC(=O)O)C(=O)N[C@@H](C)C(=O)N[C@@H](CCCCN)C(=O)N[C@@H](CC(C)C)C(=O)N[C@@H](CC(C)C)C(=O)N[C@@H](CO)C(=O)NCC(=O)N[C@@H](CC(C)C)C(=O)N[C@@H](CC(C)C)C(N)=O (H-FLPIEAKLLSGLL-NH2) | > 128 | > 128 | > 128 | > 128 | > 256 | > 128 |
| CC[C@H](C)[C@H](NC(=O)[C@@H]1CCCN1C(=O)[C@H](CCC(=O)O)NC(=O)[C@@H](N)Cc1ccccc1)C(=O)N[C@H](C(=O)N[C@@H](C)C(=O)N[C@@H](CCCCN)C(=O)N[C@@H](CC(C)C)C(=O)N[C@@H](CC(C)C)C(=O)N[C@@H](CO)C(=O)NCC(=O)N[C@@H](CC(C)C)C(=O)N[C@@H](CC(C)C)C(N)=O)C(C)C (H-FEPIVAKLLSGLL-NH2) | > 128 | > 128 | > 128 | > 128 | > 256 | > 128 |
| CC[C@H](C)[C@H](NC(=O)[C@@H]1CCCN1C(=O)[C@H](CC(C)C)NC(=O)[C@@H](N)CCC(=O)O)C(=O)N[C@H](C(=O)N[C@@H](C)C(=O)N[C@@H](CCCCN)C(=O)N[C@@H](CC(C)C)C(=O)N[C@@H](CC(C)C)C(=O)N[C@@H](CO)C(=O)NCC(=O)N[C@@H](CC(C)C)C(=O)N[C@@H](CC(C)C)C(N)=O)C(C)C (H-ELPIVAKLLSGLL-NH2) | > 128 | > 128 | > 128 | > 128 | > 256 | > 128 |
| CC[C@H](C)[C@H](NC(=O)[C@@H]1CCCN1C(=O)[C@H](CC(C)C)NC(=O)[C@@H](N)Cc1ccccc1)C(=O)N[C@H](C(=O)N[C@@H](CCC(=O)O)C(=O)N[C@@H](CCCCN)C(=O)N[C@@H](CC(C)C)C(=O)N[C@@H](CC(C)C)C(=O)N[C@@H](CO)C(=O)NCC(=O)N[C@@H](CC(C)C)C(=O)N[C@@H](CC(C)C)C(N)=O)C(C)C (H-FLPIVEKLLSGLL-NH2) | > 128 | > 128 | > 128 | 64 (≈ 92.2 µg/mL) | > 256 | > 128 |
| CC[C@H](C)[C@H](NC(=O)[C@@H]1CCCN1C(=O)[C@H](CC(C)C)NC(=O)[C@@H](N)Cc1ccccc1)C(=O)N[C@H](C(=O)N[C@@H](C)C(=O)N[C@@H](CCCCN)C(=O)N[C@@H](CC(C)C)C(=O)N[C@@H](CC(C)C)C(=O)N[C@@H](CO)C(=O)NCC(=O)N[C@@H](CC(C)C)C(=O)N[C@@H](CCC(=O)O)C(N)=O)C(C)C (H-FLPIVAKLLSGLE-NH2) | > 128 | > 128 | > 128 | > 128 | > 256 | > 128 |
| CC(C)C[C@H](NC(=O)[C@H](CC(C)C)NC(=O)C(CCCCN)NC(=O)[C@H](CCC(=O)O)NC(=O)[C@H](CC(C)C)NC(=O)[C@H](CC(C)C)NC(=O)[C@H](CCCCN)NC(=O)[C@H](CCCCN)NC(=O)[C@@H](NC(=O)[C@H](CCCCN)NC(=O)[C@@H]1CCCN1C(=O)[C@H](CC(C)C)NC(=O)[C@@H](N)Cc1ccccc1)C(C)C)C(N)=O (stereo not given in full) (H-FLPKVKKLLE[ξK]LL-NH2) | 32 (≈ 50.2 µg/mL) | 32 (≈ 50.2 µg/mL) | 16 (≈ 25.1 µg/mL) | 8 (≈ 12.5 µg/mL) | > 256 | 16 (≈ 25.1 µg/mL) |
| CC[C@H](C)[C@H](NC(=O)[C@@H]1CCCN1C(=O)[C@H](CC(C)C)NC(=O)[C@@H](N)Cc1ccccc1)C(=O)N[C@H](C(=O)N[C@@H](C)C(=O)N[C@@H](CCCCN)C(=O)N[C@@H](CC(C)C)C(=O)N[C@@H](CC(C)C)C(=O)N[C@@H](CO)C(=O)NCC(=O)N[C@@H](CCC(=O)O)C(=O)N[C@@H](CC(C)C)C(N)=O)C(C)C (H-FLPIVAKLLSGEL-NH2) | > 128 | > 128 | > 128 | > 128 | > 256 | > 128 |
| CC(C)C[C@H](NC(=O)[C@H](CC(C)C)NC(=O)[C@H](CCC(=O)O)NC(=O)[C@H](CCCCN)NC(=O)[C@H](CC(C)C)NC(=O)[C@H](CC(C)C)NC(=O)[C@H](CCCCN)NC(=O)[C@H](CCCCN)NC(=O)[C@@H](NC(=O)[C@H](CCCCN)NC(=O)[C@@H]1CCCN1C(=O)[C@H](CC(C)C)NC(=O)[C@@H](N)Cc1ccccc1)C(C)C)C(N)=O (H-FLPKVKKLLKELL-NH2) | 8 (≈ 12.5 µg/mL) | 32 (≈ 50.2 µg/mL) | 16 (≈ 25.1 µg/mL) | 16 (≈ 25.1 µg/mL) | > 256 | 16 (≈ 25.1 µg/mL) |
| CC[C@H](C)[C@H](NC(=O)[C@@H]1CCCN1C(=O)[C@H](CC(C)C)NC(=O)[C@@H](N)Cc1ccccc1)C(=O)N[C@H](C(=O)N[C@@H](C)C(=O)N[C@@H](CCCCN)C(=O)N[C@@H](CCC(=O)O)C(=O)N[C@@H](CC(C)C)C(=O)N[C@@H](CO)C(=O)NCC(=O)N[C@@H](CC(C)C)C(=O)N[C@@H](CC(C)C)C(N)=O)C(C)C (H-FLPIVAKELSGLL-NH2) | > 128 | > 128 | > 128 | > 128 | > 256 | > 128 |
